# Patent publication US6528275B1, “Substrates and inhibitors of proteolytic enzymes” (Peptide Therapeutics Limited, priority 1996, dated 2003)
# Non-standard residues stand in square brackets, D forms with d. Residues, ends and D or L forms follow the SMILES beside them. *: point of attachment. Tyr(3-NO2) = N[C@@H](Cc1ccc(O)c([N+](=O)[O-])c1)C(=O)O; 2Nal = N[C@@H](Cc1ccc2ccccc2c1)C(=O)O; Hyp = O=C(O)[C@@H]1C[C@@H](O)CN1; 3Pal = N[C@@H](Cc1cccnc1)C(=O)O; hLeu = CC(C)CC[C@H](N)C(=O)O; dNle = CCCC[C@@H](N)C(=O)O; Ac6c = NC1(C(=O)O)CCCCC1; Nle = CCCC[C@H](N)C(=O)O; Ac5c = NC1(C(=O)O)CCCC1; 2Abz = Nc1ccccc1C(=O)O; Piv = CC(C)(C)C(=O)*
# Molecular target: T1, Der pI (Dermatophagoides pteronyssinus, UniProt P08176)
# T1 construct: tissue SmithKline-Beecham, U.K (crude mite extract); host or cells: crude house dust mite extract
# T1 sequence (P08176 99-320): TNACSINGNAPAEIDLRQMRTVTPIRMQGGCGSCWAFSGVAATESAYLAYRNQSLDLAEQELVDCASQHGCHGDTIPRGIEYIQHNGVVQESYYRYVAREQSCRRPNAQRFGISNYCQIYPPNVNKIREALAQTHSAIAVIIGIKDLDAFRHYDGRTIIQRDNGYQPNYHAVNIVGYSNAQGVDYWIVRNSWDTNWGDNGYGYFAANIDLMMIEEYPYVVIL
# Experiment: Der pI substrate assay with FRET peptides (fluorescence, Km, kcat/Km)
# Format: biochemical, house dust mite
# Conditions: purified Der pI; peptides SEQ ID Nos. 1-76; read-out: Measured Km
# Method: (§1) Using the general techniques described above, the following compounds were prepared and assayed as potential substrates against Der pI purified as described above.
# (§2) Each mixture of 20 compounds in the libraries of the apparatus described herein was screened at a concentration of 1.0 μM per compound in an assay against the cysteinyl protease Der pI.
# (§3) Plate assays were carried out in 96 well plate format, using 0.1 ug of Der pI per 100 μL assay volume in each well and using 20 μM of the substrate. All assays were performed in Assay Buffer (AB; 50 mM potassium phosphate, pH 8.25 containing 1 mM ethylenediaminetetraacetic acid (EDTA) and 1 mM dithiothreitol (DTT). The Der pI enzyme is pre-activated by addition of DTT and this in incubated at room temperature for 5 min. prior to initiation of the assay. As an example for the screening methodology, each well contains a 5 μL of a 20 μM solution of the test compound in DMSO, 10 μL of a 200 μM aqueous solution of the substrate, 2, and 85 μL of Der pI in AB is added to initiate the reaction. Enzyme activity is monitored by fluorescence using 320 nm for excitation and 420 nm for the emission wavelengths using a Labsystems Fluroskan Ascent machine. Kinetic measurements were carried out using a Hitachi F-4500 Fluorescence Spectrophotometer.
row,Compound,Km [nM]
1,CC(C)[C@H](NC(=O)c1ccccc1N)C(=O)N[C@@H](C)C(=O)N[C@@H](Cc1c[nH]cn1)C(=O)N[C@@H](CO)C(=O)N[C@@H](Cc1ccc(O)c([N+](=O)[O-])c1)C(=O)N[C@@H](CC(=O)O)C(N)=O [Abz-Val-Ala-His-Ser-Tyr(NO2)-Asp-NH2] (H-[2Abz]VAHS[Tyr(3-NO2)]D-NH2),> 20000
2,Abz-Bip-Ala-hLeu-Abu-Tyr(NO2)-Asp-NH2,1700

# Molecular target: T1, Der pI
# Experiment: as above
# Format: biochemical, house dust mite
# Design: key: NS-Not Substrate: Not hydrolysed by Der pI; NM-Substrate but not measured: Substrate for Der pI but not measured
# Conditions: purified Der pI; peptides SEQ ID Nos. 77-85
# Method: as §1, §2, §3
row,Compound,substrate or not substrate for Der pI (symbols in Measured Km)
1,Abz-Val-(NMe)Ala-Nle-Ser-Tyr(NO2)-Asp-NH2,NS
2,Bz-Val-Ala-Statine-Ser-eAha-NH2,NS
3,Abz-Cmpi-Nle-Ser-Tyr(NO2)-Asp-NH2,NS
4,Abz-Deg-Ala-Nle-Ser-Tyr(NO2)-Asp-NH2,NS
5,Abz-Val-Ala-Aib-Ser-Tyr(NO2)-Asp-NH2,NS
6,Abz-p.Aba-Nle-Ser-Tyr(NO2)-Asp-NH2,NS
7,Abz-Val-Ala-(NMe)Nle-Ser-Tyr(NO2)-Asp-NH2,NS
8,Abz-Val-Aib-Nle-Ser-Tyr(NO2)-Asp-NH2,NS
9,nBu-D.Ser-D.Nle-D.Ala-D.Val-p.Aba-NH2,NS

# Molecular target: T1, Der pI
# Experiment: as above
# Format: biochemical, house dust mite
# Design: key: NS indicates that the peptide was not hydrolysed by Der pI.; NM indicated that the peptide was a substrate for Der pI, but the Km was not measured.; NM^a indicates that the peptide was a substrate for Der pI, and its cleavage was followed by HPLC-MS showing hydrolysis to occur between-Nle-Ser-
# Conditions: purified Der pI; peptides SEQ ID Nos. 1-76
# Method: as §1, §2, §3
row,Compound,substrate or not substrate for Der pI (symbols in Measured Km)
1,CC(C)[C@H](NC(=O)c1ccccc1N)C(=O)N[C@@H](C)C(=O)NC1(C(=O)N[C@@H](CO)C(=O)N[C@@H](Cc2ccc(O)c([N+](=O)[O-])c2)C(=O)N[C@@H](CC(=O)O)C(N)=O)CCCCC1 [Abz-Val-Ala-ACH-Ser-Tyr(NO2)-Asp-NH2] (H-[2Abz]VA[Ac6c]S[Tyr(3-NO2)]D-NH2),NS
2,CCCC[C@H](NC(=O)[C@H](C)NC(=O)[C@@H](N)C(C)C)C(=O)N[C@@H](CO)C(=O)N[C@@H](Cc1ccc(O)c([N+](=O)[O-])c1)C(N)=O [H-Val-Ala-Nle-Ser-Tyr(NO2)-NH2] (H-VA[Nle]S[Tyr(3-NO2)]-NH2),NS
3,CCCC[C@H](NC(=O)[C@H](C)NC(=O)[C@@H](NC(=O)C(C)(C)C)C(C)C)C(=O)N[C@@H](CO)C(=O)N[C@@H](Cc1ccc(O)c([N+](=O)[O-])c1)C(N)=O [Piv-Val-Ala-Nle-Ser-Tyr(NO2)-NH2] (Piv-VA[Nle]S[Tyr(3-NO2)]-NH2),NM^a
4,CCCC[C@@H](NC(=O)[C@H](C)NC(=O)[C@@H](NC(=O)c1ccccc1N)C(C)C)C(=O)N[C@@H](CO)C(=O)N[C@@H](Cc1ccc(O)c([N+](=O)[O-])c1)C(=O)N[C@@H](CC(=O)O)C(N)=O [Abz-Val-Ala-DNle-Ser-Tyr(NO2)-Asp-NH2] (H-[2Abz]VA[dNle]S[Tyr(3-NO2)]D-NH2),NS
5,CCCC[C@H](NC(=O)[C@H](C)NC(=O)[C@@H](NC(C)=O)C(C)C)C(=O)N[C@@H](CO)C(=O)N[C@@H](Cc1ccc(O)c([N+](=O)[O-])c1)C(N)=O [Ac-Val-Ala-Nle-Ser-Tyr(NO2)-NH2] (Ac-VA[Nle]S[Tyr(3-NO2)]-NH2),NS
6,CC(C)CC[C@H](NC(=O)[C@H](Cc1cccnc1)NC(=O)[C@@H](NC(=O)c1ccccc1N)C(C)C)C(=O)N[C@@H](CO)C(=O)N[C@@H](Cc1ccc(O)c([N+](=O)[O-])c1)C(=O)N[C@@H](CC(=O)O)C(N)=O [Abz-Val-3pyr-hLeu-Ser-Tyr(NO2)-Asp-NH2] (H-[2Abz]V[3Pal][hLeu]S[Tyr(3-NO2)]D-NH2),NS
7,CCCC[C@H](NC(=O)[C@H](C)N)C(=O)N[C@@H](CO)C(=O)N[C@@H](Cc1ccc(O)c([N+](=O)[O-])c1)C(=O)N[C@@H](CC(=O)O)C(N)=O [H-Ala-Nle-Ser-Tyr(NO2)-Asp-NH2] (H-A[Nle]S[Tyr(3-NO2)]D-NH2),NS
8,CC(C)CC[C@H](NC(=O)[C@@H](CCC(N)=O)NC(=O)[C@@H](NC(=O)c1ccccc1N)C(C)C)C(=O)N[C@@H](CO)C(=O)N[C@@H](Cc1ccc(O)c([N+](=O)[O-])c1)C(=O)N[C@@H](CC(=O)O)C(N)=O [Abz-Va1-DGln-hLeu-Ser-Tyr(NO2)-Asp-NH2] (H-[2Abz]V[dQ][hLeu]S[Tyr(3-NO2)]D-NH2),NS
9,CCCC[C@H](NC(=O)[C@H](C)NC(=O)[C@@H](NC(=O)c1ccccc1N)C(C)C)C(=O)N[C@@H](CO)C(=O)N[C@@H](Cc1ccc(O)c([N+](=O)[O-])c1)C(N)=O [Abz-Val-Ala-Nle-Ser-Tyr(NO2)-NH2] (H-[2Abz]VA[Nle]S[Tyr(3-NO2)]-NH2),NM
10,CC(C)[C@H](NC(=O)c1ccccc1N)C(=O)N[C@@H](C)C(=O)N1C[C@H](O)C[C@H]1C(=O)N[C@@H](CO)C(=O)N[C@@H](Cc1ccc(O)c([N+](=O)[O-])c1)C(=O)N[C@@H](CC(=O)O)C(N)=O [Abz-Val-Ala-Hyp-Ser-Tyr(NO2)-Asp-NH2] (H-[2Abz]VA[Hyp]S[Tyr(3-NO2)]D-NH2),NS
11,CC(C)CC[C@H](NC(=O)[C@H](C)NC(=O)C1(NC(=O)c2ccccc2N)CCCCC1)C(=O)N[C@@H](CO)C(=O)N[C@@H](Cc1ccc(O)c([N+](=O)[O-])c1)C(=O)N[C@@H](CC(=O)O)C(N)=O [Abz-ACH-Ala-hLeu-Ser-Tyr(NO2)-Asp-NH2] (H-[2Abz][Ac6c]A[hLeu]S[Tyr(3-NO2)]D-NH2),NS
12,CC(C)CC[C@H](NC(=O)C1(NC(=O)[C@@H](NC(=O)c2ccccc2N)C(C)C)CCCCC1)C(=O)N[C@@H](CO)C(=O)N[C@@H](Cc1ccc(O)c([N+](=O)[O-])c1)C(=O)N[C@@H](CC(=O)O)C(N)=O [Abz-Val-ACH-hLeu-Ser-Tyr(NO2)-Asp-NH2] (H-[2Abz]V[Ac6c][hLeu]S[Tyr(3-NO2)]D-NH2),NS
13,CC(C)[C@H](NC(=O)c1ccccc1N)C(=O)N[C@@H](C)C(=O)NC1(C(=O)N[C@@H](CO)C(=O)N[C@@H](Cc2ccc(O)c([N+](=O)[O-])c2)C(=O)N[C@@H](CC(=O)O)C(N)=O)CCCC1 [Abz-Val-Ala-ACP-Ser-Tyr(NO2)-Asp-NH2] (H-[2Abz]VA[Ac5c]S[Tyr(3-NO2)]D-NH2),NS
14,CCCC[C@H](NC(=O)[C@H](C)NC(=O)[C@@H](NC(=O)[C@H](Cc1ccccc1)NC(=O)c1ccccc1N)C(C)C)C(=O)N[C@@H](CO)C(=O)N[C@@H](Cc1ccc(O)c([N+](=O)[O-])c1)C(=O)N[C@@H](CC(=O)O)C(N)=O [Abz-Phe-Val-Ala-Nle-Ser-Tyr(NO2)-Asp-NH2] (H-[2Abz]FVA[Nle]S[Tyr(3-NO2)]D-NH2),NM
15,CCCC[C@H](NC(=O)[C@H](C)NC(=O)c1ccccc1N)C(=O)N[C@@H](CO)C(=O)N[C@@H](Cc1ccc(O)c([N+](=O)[O-])c1)C(=O)N[C@@H](CC(=O)O)C(N)=O [Abz-Ala-Nle-Ser-Tyr(NO2)-Asp-NH2] (H-[2Abz]A[Nle]S[Tyr(3-NO2)]D-NH2),NM
16,CCCC[C@H](NC(=O)[C@H](C)NC(=O)[C@@H](NC(=O)c1ccccc1N)C(C)C)C(=O)N[C@@H](CO)C(=O)N[C@@H](C)C(=O)N[C@@H](CC(=O)O)C(N)=O [Abz-Val-Ala-Nle-Ser-Ala-Asp-NH2] (H-[2Abz]VA[Nle]SAD-NH2),NM
17,CC(C)CC[C@H](NC(=O)C1(NC(=O)[C@@H](NC(=O)c2ccccc2N)C(C)C)CCCC1)C(=O)N[C@@H](CO)C(=O)N[C@@H](Cc1ccc(O)c([N+](=O)[O-])c1)C(=O)N[C@@H](CC(=O)O)C(N)=O [Abz-Val-ACP-hLeu-Ser-Tyr(NO2)-Asp-NH2] (H-[2Abz]V[Ac5c][hLeu]S[Tyr(3-NO2)]D-NH2),NS
18,CC(C)CC[C@H](NC(=O)[C@H](Cc1ccc2ccccc2c1)NC(=O)[C@@H](NC(=O)c1ccccc1N)C(C)C)C(=O)N[C@@H](CO)C(=O)N[C@@H](Cc1ccc(O)c([N+](=O)[O-])c1)C(=O)N[C@@H](CC(=O)O)C(N)=O [Abz-Val-2Nal-hLeu-Ser-Tyr(NO2)-Asp-NH2] (H-[2Abz]V[2Nal][hLeu]S[Tyr(3-NO2)]D-NH2),NS
